System: Huh7.5 cells
Test: Supernatant infectivity titer, focus forming unit (FFU) method on Huh7.5 cells
Type: cell-based, human
Procedure: To determine the efficiency of the developed system, HCV RNA titers are determined in IU/ml (international units/ml) with Taq-Man Real-Time-PCR and infectious titers are determined with a focus-forming units (FFU) method: in this method, infectivity titers are determined by infection of cell culture replicates with serial dilutions of virus containing supernatants and, following immuno-stainings for HCV antigens, counting of HCV-antigen positive cell foci. Alternatively the infectious titers are determined as 50% tissue culture infectious dose.
Viral spread was monitored by HCV Core and NS5A immunostainings with mouse anti-HCV core protein monoclonal antibody (B2) (Anogen, Yes Biotech Laboratories) or anti-NS5A, 9E10, respectively, as described in the following section. For reporter viruses tagged with fluorescent reporter gene, viral spread was also monitored by direct visualization of the reporter gene by fluorescence microscopy. For reporter viruses tagged with hRLuc reporter gene, viral spread was also monitored by luminescence-based assay as described below. Supernatant infectivity titers were determined as 50% tissue culture infectious dose (TCID50)/mL or as focus forming units (FFU)/mL, as described in the following section. Supernatant HCV RNA titers were measured by a 5′ UTR based Real Time RT-PCR as described below.
Viral infectivity titers were determined by the tissue culture infectious dose 50 (TCID50) or focus forming unit method. 6×10^3/well naive Huh7.5 cells were plated out in a poly-D-lysine coated 96-well plate (Nunc) the day before infection. Cells were then incubated with 10-fold dilutions of cell culture supernatants. For TCID50 determinations, 6 replicates per dilution were incubated for 2-3 days. For FFU determinations, wells were incubated for 48 rs. After incubation, cells were permeabilized for 5′ with cold methanol. After washing 1× with PBS and 1× with PBS/Tween-20, blocking was carried out for 20′ with sterile filtered 1% BSA/0.2% skim milk in PBS followed by a 5′ blocking of endogenous peroxidase activity using 3% H2O2. Cells were washed as above and incubated with a 1:200 dilution of 1° Ab α-NS5A (9E10) in PBS/0.1% tween-20 over night at 4° C. After washing, a 1:300 dilution of 2° Ab HRP-goat anti-mouse IgG (H+L) (Amersham Biosciences) in PBS/0.1% tween-20 was added and incubated for 30′ at room temperature. Staining was developed using DAB substrate kit (DAKO) for 30′ after washing. In TCID50 determinations, wells were scored positive if one or more cells were infected, and the TCID50 was calculated according to the Reed and Muench method. TCID50 values are derived from single or multiple determinations as indicated. FFU determinations are based on counts of wells with 5-100 FFU and three independent virus dilutions with one replicate each. Counts were obtained by counting FFU by eye or by using automated counting on an ImmunoSpot Series 5 UV Analyzer (CTL Europe GmbH) with customized software kindly provided by CTL. From FFU counts in experimental wells, the mean of spot counts of at least 6 negative control wells was subtracted (˜usually 3 to 15 spots).

[1] = day 5 post transfection, Huh7.5
[2] = day 8 post transfection, Huh7.5

Row | Substance | Infectivity titer of transfection supernatant Log10 (FFU/mL) [1] | Infectivity titer of transfection supernatant Log10 (FFU/mL) [2] | Infectivity titer of transfection supernatant Log10 (FFU/mL) (day 5 post transfection, * another, independent transfection experiment) | Infectivity titer of transfection supernatant Log10 (FFU/mL) (day 7 post transfection, * another, independent transfection experiment)
1 | J8^5′UTR-NS2/JFH1: 2b Core-NS2 recombinant with homotypic 2b (J8) 5′UTR | 3.94 Log10 (FFU/mL) | 3.75 Log10 (FFU/mL) | – | –
2 | H77^5′UTR/J8^C-NS2/JFH1: 2b Core-NS2 recombinant with heterotypic 1a (H77) 5′UTR | 3.41 Log10 (FFU/mL) | 2.58 Log10 (FFU/mL) | – | –
3 | H77^5′UTR/J4^C-NS2/JFH1T2997C, A4828T: 1b Core-NS2 recombinant with heterotypic 1a (H77) 5′UTR | 3.32 Log10 (FFU/mL) | 2.49 Log10 (FFU/mL) | – | –
4 | HK6a^5′UTR-NS2/JFH1T1391C, A1592C: 6a Core-NS2 recombinant with homotypic 6a (HK6a) 5′UTR | – | – | 4.57 Log10 (FFU/mL) | 4.39 Log10 (FFU/mL)
5 | H77^5′UTR/S52^C-NS2/JFH1T2719G, A4551C: 3a Core-NS2 recombinant with heterotypic 1a (H77) 5′UTR | 4.07 Log10 (FFU/mL) | 4.22 Log10 (FFU/mL) | – | –
6 | S52^5′UTR/HK6a^C-NS2/JFH1T1388C, A1589C: 6a Core-NS2 recombinant with heterotypic 3a (S52) 5′UTR | 3.29 Log10 (FFU/mL) | 3.15 Log10 (FFU/mL) | – | –
7 | J4^5′UTR-NS2/JFH1T2997C, A4828T: 1b Core-NS2 recombinant with homotypic 1b (J4) 5′UTR | 2.47 Log10 (FFU/mL) | 2.07 Log10 (FFU/mL) | – | –
8 | S52^5′UTR-NS2/JFH1T2717G, A4549C: 3a Core-NS2 recombinant with homotypic 3a (S52) 5′UTR | 4.57 Log10 (FFU/mL) | 4.53 Log10 (FFU/mL) | – | –
9 | H77^5′UTR/HK6a^C-NS2/JFH1T1390C, A1591C: 6a Core-NS2 recombinant with heterotypic 1a (H77) 5′UTR | 3.60 Log10 (FFU/mL) | 3.23 Log10 (FFU/mL) | – | –
10 | S52^5′UTR/J8^C-NS2/JFH1: 2b Core-NS2 recombinant with heterotypic 3a (S52) 5′UTR | 3.08 Log10 (FFU/mL) | 2.10 Log10 (FFU/mL) | – | –
11 | S52^5′UTR/J4^C-NS2/JFH1T2995C, A4826T: 1b Core-NS2 recombinant with heterotypic 3a (S52) 5′UTR | 2.03 Log10 (FFU/mL) | 1.67 Log10 (FFU/mL) | – | –

Source: patent US8772022B2, “Hepatitis C virus expressing reporter tagged NS5A protein” (Hvidovre Hospital, priority 2008, dated 2014)
